# Experimental data: patent US9029545B2, “Thienopyridine NOX2 inhibitors” (GlaxoSmithKline Intellectual Property Limited, priority 2009, dated 2015)
# Target: T1, NOX2 in differentiated HL60 cells (Homo sapiens, UniProt P04839)
# T1 construct: Differentiation of HL-60 cells to granulocytes increases NOX2 expression; endogenous in cells; host or cells: HL60 cells differentiated to neutrophil-like cells with 1.3% DMSO and stimulated with PMA
# T1 sequence (P04839 1-570): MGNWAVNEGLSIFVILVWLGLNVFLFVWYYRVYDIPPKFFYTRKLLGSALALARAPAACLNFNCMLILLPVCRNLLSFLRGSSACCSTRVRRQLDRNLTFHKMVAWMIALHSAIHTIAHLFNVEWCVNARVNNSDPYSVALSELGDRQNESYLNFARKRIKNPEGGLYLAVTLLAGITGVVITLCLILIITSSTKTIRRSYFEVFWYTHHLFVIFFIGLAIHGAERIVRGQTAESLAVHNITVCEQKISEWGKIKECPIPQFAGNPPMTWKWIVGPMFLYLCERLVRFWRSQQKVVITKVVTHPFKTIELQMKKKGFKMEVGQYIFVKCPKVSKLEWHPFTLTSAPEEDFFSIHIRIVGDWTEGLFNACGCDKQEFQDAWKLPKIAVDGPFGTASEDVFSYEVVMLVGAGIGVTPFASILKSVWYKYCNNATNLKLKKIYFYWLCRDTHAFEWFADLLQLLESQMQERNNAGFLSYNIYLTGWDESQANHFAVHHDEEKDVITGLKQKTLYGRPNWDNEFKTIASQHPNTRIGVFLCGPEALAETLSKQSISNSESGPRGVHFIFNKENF
# T1 sequence (P13498 1-195 partner): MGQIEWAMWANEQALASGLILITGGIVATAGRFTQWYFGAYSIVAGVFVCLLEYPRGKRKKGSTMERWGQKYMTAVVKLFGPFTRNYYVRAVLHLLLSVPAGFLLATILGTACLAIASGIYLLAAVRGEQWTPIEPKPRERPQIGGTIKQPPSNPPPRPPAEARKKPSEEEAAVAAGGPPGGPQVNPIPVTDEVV
# Test: HL60 cell-based assays (Assay 1 Oxyburst green BSA fluorescence, Assay 2 L-012 luminescence); result stated for at least one of them
# Conditions: PMA-stimulated superoxide production in differentiated HL60 cells; at least one of Oxyburst and L012 assays; read-out: pIC50 in at least one of the HL60 assays (converted)
# Procedure: In the cell-based assay, superoxide production by NOX2 was measured in differentiated HL60 cells, a human myelomonocytic leukemia cell line, using either Oxyburst (Assay1) or L012 (Assay2). Differentiation of HL-60 cells to granulocytes increases NOX2 expression. The phorbol 12-myristate 13-acetate (PMA) was used to stimulate the production of superoxide in HL60 cells by activating protein kinase C, which then activated the NADPH oxidase (NOX) enzymes. Inhibition of NOX2 enzyme was detected by the reversal of fluorescence signal (Assay1) or luminescence signal (Assay2). The control inhibitor used was diphenyleneiodonium chloride (DPI), a […] inhibitor capable of non-selectively inhibiting superoxide produced by NOX enzymes.
# Assay 1: in this high-throughput screening assay, oxyburst green bovine serum albumin (BSA) was used to detect superoxide production in HL60 cells. Oxidation of Oxyburst green BSA by hydrogen peroxide as a result of the activation of NOX2 by PMA. Oxyburst green BSA fluorescence was measured at excitation 485 nm and emission 530 nm.
# Assay 2: in this assay, a chemiluminescence probe, L-012 was used to detect superoxide production in HL60 cells. L-012 reacted with various types of reactive oxygen species generated by PMA-activated HL60 cells. Luminescence was measured using Tecan Infinite 500.
# The HL60 cells were differentiated into neutrophil-like cells by adding 1.3% DMSO in the media for 3-7 days (Hua, J et al. (2000) Journal of Leukocyte Biology. 68:216-224). Iscove's Modified Dulbecco's Media (IMDM) with L-Glutamine and 25 mM HEPES buffer, Fetal Bovine Serum (FBS), Penicillin/Streptomycin, Oxyburst Green BSA, PBS, and HBSS buffer with Calcium Chloride and Magnesium Chloride were purchased from Invitrogen (Catalog #s: 12440-061, 10500-064, 15140-163, O-13291, 14190-250, and 14025-134 respectively). Phorbol 12-myristate 13-acetate (PMA), glucose, and CHAPS were purchased from Sigma (Catalog #s: 79346, D-9434, and C5070 respectively). Diphenyleneiodonium chloride (DPI) was purchased from Toronto Research Chemicals (Catalog #: D491500). L-012 was purchased from Wako Chemical (Catalog #: 120-04891). Dimethyl sulfoxide (DMSO) was purchased EMD Chemicals (VWR Catalog #: MX1456-1). Multidrop combi was purchased from Thermo Electron Corporation (Waltham, Mass., USA). Hummingbird nanoliter liquid dispenser was purchased from Genomics Solution (Ann Arbor, Mich., USA). 384 well low-volume plates and polypropylene 384 well clear plates were purchased from Greiner (Catalog #: 784076 and 781280 respectively). 96 well plate and 384 well plate black assay plates were purchased from Greiner (Catalog #: 655094 and 781098). 96 well plate for compound serial dilution was purchased from Corning (Catalog #: 9017). Acquest or Analyst fluorescence plate reader was purchased from LJL Biosystems/Molecular Devices (California, USA). Tecan Infinite 500 was purchased from Tecan (Switzerland).
# Media for HL60 cells were kept at 4° C. for storage and were warmed to 37° C. in a water bath before use. The media components were IMDM media with 20% FBS and 1% Penicillin/Streptomycin.
# Buffer to be used for compound addition and compound dilution consisted of HBSS buffer with 0.1% glucose.
# Buffer to be used for cells consisted of HBSS buffer with 0.1% glucose and 0.01% CHAPS.
# HL60 cells were thawed and resuspended in Cells media. The cells were centrifuged at 1200 rpm for 8 minutes. Media was aspirated and the cells were resuspended in Cells buffer. The cells were counted and resuspended to 1×10^6 cells/mL.
# Full inhibition controls were dispensed using 100 nL/well of 1 mM DPI in DMSO to column 18 of a 384 well plate. Compounds were dispensed using 100 nL/well. Full activity controls were dispensed using 100 nL/well of 4 uM PMA in DMSO. Oxyburst Green BSA was added to cell solution at 10 ug/mL. Using the Multidrop, 10 uL cell solution was added to the entire assay plate. The assay plate was incubated at room temperature for 100 minutes. […]
row,Structure (SMILES),IC50 [µM]
1,"Cc1cc(NS(=O)(=O)c2cccc(Cl)c2)c2c(Br)c(-c3cn[nH]c3)sc2n1 [Example 100, N-[3-Bromo-6-methyl-2-(1H-pyrazol-4-yl)thieno[2,3-b]pyridin-4-yl]-3-chlorobenzenesulfonamide]",< 100
2,"COc1cccc(-c2c(C)sc3nc(Cl)cc(NS(=O)(=O)c4cccc(Cl)c4)c23)c1 [Example 117, 3-Chloro-N-{6-chloro-2-methyl-3-[3-(methyloxy)phenyl]thieno[2,3-b]pyridin-4-yl}benzenesulfonamide]",< 100
